From patent US10189854B2, “Substituted pyrimidine compounds” (Grünenthal GmbH, priority 2014, dated 2019) come the findings set out here.

Chain of human PDE4B1 (Q07343 whole entry): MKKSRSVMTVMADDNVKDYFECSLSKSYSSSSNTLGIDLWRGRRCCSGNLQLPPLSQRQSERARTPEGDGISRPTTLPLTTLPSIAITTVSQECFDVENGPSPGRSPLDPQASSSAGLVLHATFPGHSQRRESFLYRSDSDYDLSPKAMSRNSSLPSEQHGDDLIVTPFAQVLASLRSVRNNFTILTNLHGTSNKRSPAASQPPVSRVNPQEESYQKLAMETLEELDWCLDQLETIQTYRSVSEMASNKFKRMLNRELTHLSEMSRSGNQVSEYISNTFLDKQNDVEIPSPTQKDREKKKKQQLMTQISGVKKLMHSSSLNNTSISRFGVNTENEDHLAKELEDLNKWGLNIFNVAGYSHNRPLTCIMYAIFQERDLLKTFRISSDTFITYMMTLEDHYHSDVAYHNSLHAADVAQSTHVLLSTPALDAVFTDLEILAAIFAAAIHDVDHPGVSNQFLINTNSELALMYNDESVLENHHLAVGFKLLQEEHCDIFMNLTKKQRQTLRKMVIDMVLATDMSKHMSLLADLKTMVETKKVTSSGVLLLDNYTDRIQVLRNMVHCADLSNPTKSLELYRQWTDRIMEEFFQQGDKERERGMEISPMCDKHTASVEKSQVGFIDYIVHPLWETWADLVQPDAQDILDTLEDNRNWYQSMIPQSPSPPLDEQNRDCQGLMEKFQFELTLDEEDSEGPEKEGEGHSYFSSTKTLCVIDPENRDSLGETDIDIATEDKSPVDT

The target of this assay is human PDE4B1 (Homo sapiens (Human), UniProt Q07343). As to the kind of experiment: cAMP HTRF assay to determine the activity of hPDE4B1. The following applies: IC50 inhibition of PDE4B; human recombinant PDE4B1, cAMP HTRF assay. The class given is biochemical. In a few lines:
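Recombinant human PDE4B1 expressed in Sf9 cells (4.8 U) was incubated with 40 nM cAMP for 30 min at room temperature in Tris buffer, pH 7.8, with MgCl2, DTT and Tween 20. HTRF detection of remaining cAMP followed, with 1 mM IBMX stop, read 60 min later as the 665/620 nm ratio. Results are % inhibition versus control.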
A general note: Time-resolved FRET reads energy transfer from a long-lived donor to a nearby acceptor.
What is called IC50 is the midpoint of a concentration-inhibition curve. With “[1-[5-(4-Fluoro-pyridin-2-yl)-pyrimidin-2-yl]-spiro[1,2-dihydro-indole-3,1′-cyclopropane]-6-yl]-morpholin-4-yl-methanone [Compound 187]”, the concentration for half-maximal inhibition (IC50) is below 0.1 µM.

`O=C(c1cnc2c(c1)N(c1ncc(-c3ccccc3F)cn1)CC21CC1)N1CCOCC1` [Compound 169, [1-[5-(2-Fluorophenyl)-pyrimidin-2-yl]-spiro[1,2-dihydro-pyrrolo[3,2-b]pyridine-3,1′-cyclopropane]-6-yl]-morpholin-4-yl-methanone]: the IC50 lay in the range of 0.1 to 1 µM.

For `COc1ccc(-c2cnc(N3CC4(CC4)c4ccc(C(=O)N5CCOCC5)cc43)nc2)c(F)c1` [Compound 17, [1-[5-(2-Fluoro-4-methoxy-phenyl)-pyrimidin-2-yl]-spiro[1,2-dihydro-indole-3,1′-cyclopropane]-6-yl]-morpholin-4-yl-methanone], the concentration for half-maximal inhibition (IC50) was below 0.1 µM.

“[1-[5-(1-Cyclopropyl-phenyl)-pyrimidin-2-yl]-spiro[1,2-dihydro-indole-3,1′-cyclopropane]-6-yl]-piperazin-1-yl-methanone [Compound 70]”: the half-inhibitory concentration (IC50) lay in the range of 0.1 to 1 µM.

With `Cn1cccc1-c1cnc(N2CC3(CC3)c3ccc(C(=O)N4CCOCC4)cc32)nc1` [Compound 141, [1-[5-(1-Methyl-1H-pyrrol-2-yl)-pyrimidin-2-yl]-spiro[1,2-dihydro-indole-3,1′-cyclopropane]-6-yl]-morpholin-4-yl-methaone], the IC50 is below 0.1 µM.

Take `CN(Cc1ccco1)C(=O)c1ccc2c(c1)N(c1ncc(-c3ccccc3F)cn1)CC21CC1` [Compound 91, 1-[5-(2-Fluorophenyl)-pyrimidin-2-yl]-N-(furan-2-yl-methyl)-N-methyl-spiro[1,2-dihydro-indole-3,1′-cyclopropane]-6-carboxylic acid amide]: the half-inhibitory concentration (IC50) lay in the range of 0.1 to 1 µM.

Consider `CN(C)C(=O)c1ccc2c(c1)N(c1ncc(-c3cccc(F)c3)cn1)CC21CC1` [Compound 125, 1-[5-(3-Fluorophenyl)-pyrimidin-2-yl]-N,N-dimethyl-spiro[1,2-dihydro-indole-3,1′-cyclopropane]-6-carboxylic acid amide], for which the IC50 was below 0.1 µM.

Turning to `CC1COCCN1C(=O)c1ccc2c(c1)N(c1ncc(-c3ccccc3F)cn1)CC21CC1` (stereo not drawn) [Compound 103, [1-[5-(2-Fluorophenyl)-pyrimidin-2-yl]-spiro[1,2-dihydro-indole-3,1′-cyclopropane]-6-yl]-(3-methyl-morpholin-4-yl)-methanone], the IC50 was below 0.1 µM.

Consider `N#Cc1ccccc1-c1cnc(N2CC3(CC3)c3ccc(C(=O)N4CCOCC4)cc32)nc1` [Compound 18, 2-[2-[6-(Morpholine-4-carbonyl)-spiro[1,2-dihydro-indole-3,1′-cyclopropane]-1-yl]-pyrimidin-5-yl]-benzonitrile], for which the 50% inhibitory concentration (IC50) lay within 0.1 to 1 µM.

Turning to `COc1cccc(-c2cnc(N3CC4(CC4)c4ccc(C(=O)N(C)CCO)cc43)nc2)n1` [Compound 211, N-(2-Hydroxy-ethyl)-1-[5-(6-methoxy-pyridin-2-yl)-pyrimidin-2-yl]-N-methyl-spiro[1,2-dihydro-indole-3,1′-cyclopropane]-6-carboxylic acid amide], the 50% inhibitory concentration (IC50) was below 0.1 µM.

Turning to `COc1cccc(F)c1-c1cnc(N2CC3(CC3)c3ccc(C(=O)N4CCOCC4)cc32)nc1` [Compound 19, [1-[5-(2-Fluoro-6-methoxy-phenyl)-pyrimidin-2-yl]-spiro[1,2-dihydro-indole-3,1′-cyclopropane]-6-yl]-morpholin-4-yl-methanone], the IC50 is 0.1 to 1 µM.

Consider `CC1(C)CN(C(=O)c2ccc3c(c2)N(c2ncc(-c4ccccc4F)cn2)CC32CC2)CCO1` [Compound 105, (2,2-Dimethyl-morpholin-4-yl)-[1-[5-(2-fluorophenyl)-pyrimidin-2-yl]-spiro[1,2-dihydro-indole-3,1′-cyclopropane]-6-yl] methanone], for which the concentration for half-maximal inhibition (IC50) was 0.1 to 1 µM.

On to `Cc1ncccc1-c1cnc(N2CC3(CC3)c3ccc(C(=O)N4CCOCC4)cc32)nc1` [Compound 167, [1-[5-(2-Methyl-pyridin-3-yl)-pyrimidin-2-yl]-spiro[1,2-dihydro-indole-3,1′-cyclopropane]-6-yl]-morpholin-4-yl-methanone], for which the IC50 is below 0.1 µM.

As to `N#Cc1ccc(F)c(-c2cnc(N3CC4(CC4)c4ccc(C(=O)N5CC[C@@H](N)C5)cc43)nc2)c1` [Compound 123, 3-[2-[6-[(3R)-3-Amino-pyrrolidine-1-carbonyl]-spiro[1,2-dihydro-indole-3,1′-cyclopropane]-1-yl]-pyrimidin-5-yl]-4-fluoro-benzonitrile], the IC50 is below 0.1 µM.

With `O=C(c1ccc2c(c1)N(c1ncc(-c3cccc(F)c3)cn1)CC21CC1)N1CCCC1` [Compound 130, [1-[5-(3-Fluorophenyl)-pyrimidin-2-yl]-spiro[1,2-dihydro-indole-3,1′-cyclopropane]-6-yl]-pyrrolidin-1-yl-methanone], the concentration for half-maximal inhibition (IC50) was below 0.1 µM.

As for `O=C(c1ccc2c(c1)N(c1ncc(-c3ccccc3F)cn1)CC21CC1)N1CC2CC1CN2CCO` (stereo not drawn) [Compound 218, [1-[5-(2-Fluorophenyl)-pyrimidin-2-yl]-spiro[1,2-dihydro-indole-3,1′-cyclopropane]-6-yl]-[5-(2-hydroxy-ethyl)-2,5-diazabicyclo[2.2.1]heptan-2-yl]-methanone], the IC50 was in the range of 0.1 to 1 µM.

Regarding `O=C(c1ccc2c(c1)N(c1ncc(-c3ccncc3F)cn1)CC21CC1)N1CCOCC1` [Compound 147, [1-[5-(3-Fluoro-pyridin-4-yl)-pyrimidin-2-yl]-spiro[1,2-dihydro-indole-3,1′-cyclopropane]-6-yl]-morpholin-4-yl-methanone], the IC50 was below 0.1 µM.

As to `O=C(c1ccc2c(c1)N(c1ncc(-c3ccccc3C(F)F)cn1)CC21CC1)N1CCOCC1` [Compound 39, [1-[5-[2-(Difluoro-methyl)-phenyl]-pyrimidin-2-yl]spiro[1,2-dihydro-indole-3,1′-cyclopropane]-6-yl]-morpholin-4-yl-methanone], the IC50 lay within 0.1 to 1 µM.

In the case of `O=C(c1ccc2c(c1)N(c1ncc(-c3ccccc3F)cn1)CC21CC1)N1CCCC2(COC2)C1` [Compound 79, [1-[5-(2-Fluorophenyl)-pyrimidin-2-yl]-spiro[1,2-dihydro-indole-3,1′-cyclopropane]-6-yl]-(2-oxa-8-azaspiro[3.5]nonan-8-yl)-methanone], the half-inhibitory concentration (IC50) fell in the range of 1 to 10 µM.

As to `O=C(c1ccc2c(c1)N(c1ncc(-c3ccccc3)cn1)CC21CC1)N1CCOCC1` [Compound 7, Morpholin-4-yl-[1-(5-phenyl-pyrimidin-2-yl)-spiro[1,2-dihydro-indole-3,1′-cyclopropane]-6-yl]-methanone], the IC50 is below 0.1 µM.

On to `CN(CCO)C(=O)c1ccc2c(c1)N(c1ncc(-c3cc(F)cc(F)c3)cn1)CC21CC1` [Compound 126, 1-[5-(3,5-Difluoro-phenyl)-pyrimidin-2-yl]-N-(2-hydroxy-ethyl)-N-methyl-spiro[1,2-dihydro-indole-3,1′-cyclopropane]-6-carboxylic acid amide], for which the IC50 is below 0.1 µM.

As to `O=C(c1ccc2c(c1)N(c1ncc(-c3ccccc3Cl)cn1)CC21CC1)N1CCOCC1` [Compound 6, [1-[5-(2-Chlorophenyl)-pyrimidin-2-yl]-spiro[1,2-dihydro-indole-3,1′-cyclopropane]-6-yl]-morpholin-4-yl-methanone], the IC50 is 0.1 to 1 µM.

With `COc1ccnc(-c2cnc(N3CC4(CC4)c4ccc(C(=O)N5CCOCC5)cc43)nc2)c1` [Compound 182, [1-[5-(4-Methoxy-pyridin-2-yl)-pyrimidin-2-yl]-spiro[1,2-dihdyro-indole-3,1′-cyclopropane]-6-yl]-morpholin-4-yl-methanone], the IC50 is below 0.1 µM.

With `CN(C)C(=O)c1ccccc1-c1cnc(N2CC3(CC3)c3ccc(C(=O)N4CCOCC4)cc32)nc1` [Compound 21, N,N-Dimethyl-2-[2-[6-(morpholine-4-carbonyl)-spiro[1,2-dihydro-indole-3,1′-cyclopropane]-1-yl]-pyrimidin-5-yl]-benzamide], the IC50 was 0.1 to 1 µM.

For `Cc1ccnc(-c2cnc(N3CC4(CC4)c4ccc(C(=O)N5CCOCC5)cc43)nc2)c1` [Compound 192, [1-[5-(4-Methyl-pyridin-2-yl)-pyrimidin-2-yl]-spiro[1,2-dihydro-indole-3,1′-cyclopropane]-6-yl]-morpholin-4-yl-methanone], the IC50 was below 0.1 µM.

For the compound `NC(=O)c1cccc(-c2cnc(N3CC4(CC4)c4ccc(C(=O)N5CC[C@@H](N)C5)cc43)nc2)c1` [Compound 118, 3-[2-[6-[(3R)-3-Amino-pyrrolidine-1-carbonyl]-spiro[1,2-dihydro-indole-3,1′-cyclopropane]-1-yl]-pyrimidin-5-yl]-benzamide], the 50% inhibitory concentration (IC50) was below 0.1 µM.

As to “N-[(3R)-1-[1-(5-Phenyl-pyrimidin-2-yl)-spiro[1,2-di-hydro-indole-3,1′-cyclopropane]-6-carbonyl]-pyrrolidin-3-yl]-acetamide [Compound 203]”, the IC50 was 1 to 10 µM.

Regarding `N#Cc1cccc(F)c1-c1cnc(N2CC3(CC3)c3ccc(C(=O)N4CCOCC4)cc32)nc1` [Compound 20, 3-Fluoro-2-[2-[6-(morpholine-4-carbonyl)-spiro[1,2-dihydro-indole-3,1′-cyclopropane]-1-yl]-pyrimidin-5-yl]-benzonitrile], the half-maximal inhibitory concentration (IC50) fell in the range of 0.1 to 1 µM.

With `O=C(c1ccc2c(c1)N(c1ncc(-c3cccc(F)c3F)cn1)CC21CC1)N1CCOCC1` [Compound 15, [1-[5-(2,3-Difluoro-phenyl)-pyrimidin-2-yl]-spiro[1,2-dihydro-indole-3,1′-cyclopropane]-6-yl]-morpholin-4-yl-methanone], the 50% inhibitory concentration (IC50) is below 0.1 µM.

Take `O=C(c1ccc2c(c1)N(c1ncc(-c3ccc(F)cc3F)cn1)CC21CC1)N1CCNCC1` [Compound 71, [1-[5-(2,4-Difluoro-phenyl)-pyrimidin-2-yl]-spiro[1,2-dihydro-indole-3,1′-cyclopropane]-6-yl]-piperazin-1-yl-methanone]: the concentration for half-maximal inhibition (IC50) fell in the range of 0.1 to 1 µM.
